Measurements taken from patent US12540141B2, “Spiropyrrolidine derived antiviral agents” (priority 2020, dated 2026).

target: SARS-CoV-2 3CL-protease (Severe acute respiratory syndrome coronavirus 2, UniProt P0DTD1); assay: SARS-CoV-2 3C-Like (3CL) Protease Fluorescence Assay (FRET); type: biochemical; settings: SARS-CoV-2 3CL-protease 10 nM, 30 min preincubation at RT, substrate 40 μM

| SMILES | IC50 [µM] |
| --- | --- |
| CN(C(=O)c1cc2c(F)cc(F)cc2[nH]1)[C@@H](Cc1cccc(F)c1)C(=O)N1C[C@]2(C[C@H]1C#N)C(=O)Nc1ccccc12 [Example 389] | < 0.1 |
| CC(C)C[C@@H](C(=O)N1C[C@]2(C[C@H]1C#N)C(=O)Nc1ccccc12)N(C)C(=O)c1c(Cl)cc(F)cc1Cl [Example 186] | < 0.1 |
| CC(C)C[C@@H](C(=O)N1C[C@]2(C[C@H]1C#N)C(=O)Nc1ccc(Br)cc12)N(C)C(=O)OCc1ccccc1 [Example 517, benzyl ((S)-1-((3R,5′S)-5-bromo-5′-cyano-2-oxospiro[indoline-3,3′-pyrrolidin]-1′-yl)-4-methyl-1-oxopentan-2-yl)(methyl)carbamate] | < 0.1 |
| CN(C(=O)c1cc2c(F)cc(F)cc2[nH]1)[C@@H](COC(C)(C)C)C(=O)N1C[C@]2(C[C@H]1C#N)C(=O)Nc1ccccc12 [Example 371] | < 0.1 |
| CC(C)C[C@@H](C(=O)N1C[C@]2(C[C@H]1C#N)C(=O)Nc1ccccc12)N(C)C(=O)[C@H](c1cnn(C)c1)C(C)C [Example 349] | < 0.1 |
| [2H]C([2H])([2H])N(C(=O)c1cn(C2CCC2)nn1)[C@@H](CCCC)C(=O)N1C[C@]2(C[C@H]1C#N)C(=O)Nc1ccccc12 [Example 392] | < 0.1 |
| CC(=O)C[C@@H](C(=O)N1C[C@]2(C[C@H]1C#N)C(=O)Nc1ccccc12)N(C)C(=O)c1cc2c(F)cc(F)cc2[nH]1 [Example 442] | < 0.1 |
| CC(C)C[C@@H](C(=O)N1C[C@]2(C[C@H]1C#N)C(=O)Nc1ccccc12)N(C)C(=O)c1cccc(Cl)c1 [Example 167] | < 0.1 |
| CN(C(=O)c1cc2cccnc2[nH]1)[C@@H](CC1CC1)C(=O)N1C[C@]2(C[C@H]1C#N)C(=O)Nc1ccc(Cl)cc12 [Example 459] | < 0.1 |
| Cc1cc(F)c(C(=O)N(C)[C@@H](CC(C)C)C(=O)N2C[C@]3(C[C@H]2C#N)C(=O)Nc2ccccc23)cc1-c1cnn(C2CC2)c1 [Example 342] | < 0.1 |
| CC(C)C[C@@H](C(=O)N1C[C@]2(C[C@H]1C#N)C(=O)Nc1ccc(C(=O)N3CCOCC3)cc12)N(C)C(=O)c1cc2c(F)cc(F)cc2[nH]1 [Example 502, N—((S)-1-((3R,5′S)-5′-cyano-5-(morpholine-4-carbonyl)-2-oxospiro[indoline-3,3′-pyrrolidin]-1′-yl)-4-methyl-1-oxopentan-2-yl)-4,6-difluoro-N-methyl-1H-indole-2-carboxamide] | < 0.1 |
| CC(C)C[C@@H](C(=O)N1C[C@]2(C[C@H]1C#N)C(=O)Nc1ccccc12)N(C)C(=O)c1cc2ccccc2cn1 [Example 212] | < 0.1 |
| CC(C)C[C@@H](C(=O)N1C[C@]2(C[C@H]1C#N)C(=O)Nc1ccccc12)N(C)C(=O)/C=C/c1ccccc1 [Example 228] | < 0.1 |
| CC(C)C[C@@H](C(=O)N1C[C@]2(C[C@H]1C#N)C(=O)Nc1ccccc12)N(C)C(=O)c1cn(-c2ccc(F)cc2)nn1 [Example 283] | < 0.1 |
| CC(C)C[C@@H](C(=O)N1C[C@]2(C[C@H]1C#N)C(=O)Nc1ccccc12)N(C)C(=O)c1cc(Cl)c2ncc(C3CC3)cc2c1 [Example 239] | 0.1 to 1 |
| CC(C)C[C@@H](C(=O)N1C[C@]2(C[C@H]1C#N)C(=O)Nc1ccccc12)N(C)C(=O)c1cccc2cnccc12 [Example 215] | < 0.1 |
| CN(C(=O)c1cc2c(F)cc(F)cc2[nH]1)[C@@H](CC(C)(C)F)C(=O)N1C[C@]2(C[C@H]1C#N)C(=O)Nc1ccc(Cl)cc12 [Example 455] | < 0.1 |
| CC(C)C[C@@H](C(=O)N1C[C@]2(C[C@H]1C#N)C(=O)Nc1ccc(N=[N+]=[N-])cc12)N(C)C(=O)c1cc2c(F)cc(F)cc2[nH]1 [Example 503, N—((S)-1-((3R,5′S)-5-azido-5′-cyano-2-oxospiro[indoline-3,3′-pyrrolidin]-1′-yl)-4-methyl-1-oxopentan-2-yl)-4,6-difluoro-N-methyl-1H-indole-2-carboxamide] | < 0.1 |
| [2H]C([2H])([2H])N(C(=O)[C@@H](O)c1ccccc1)[C@@H](CC(C)(C)C)C(=O)N1C[C@]2(C[C@H]1C#N)C(=O)Nc1ccccc12 [Example 427] | < 0.1 |

| SMILES | IC50 [µM] |
| --- | --- |
| CN(C(=O)[C@H](O)c1ccccc1Cl)[C@@H](CC1CC1)C(=O)N1C[C@]2(C[C@H]1C#N)C(=O)Nc1ccccc12 [Example 426] | < 0.1 |
| CN(C)CCC(=O)N(C)[C@@H](CC(C)(C)F)C(=O)N1C[C@]2(C[C@H]1C#N)C(=O)Nc1ccccc12 [Example 539, N—((S)-1-((3R,5′S)-5′-cyano-2-oxospiro[indoline-3,3′-pyrrolidin]-1′-yl)-4-fluoro-4-methyl-1-oxopentan-2-yl)-3-(dimethylamino)-N-methylpropanamide] | < 0.1 |
| CC(C)(F)C[C@H](NC(=O)c1cccc(OC(F)(F)F)c1)C(=O)N1C[C@]2(C[C@H]1C#N)C(=O)Nc1ccc(Cl)cc12 [Example 447] | < 0.1 |
| COc1ccc(C(=O)N(C)[C@@H](CC(C)C)C(=O)N2C[C@]3(C[C@H]2C#N)C(=O)Nc2ccccc23)nc1 [Example 193] | 0.1 to 1 |
| CC(C)C[C@@H](C(=O)N1C[C@]2(C[C@H]1C#N)C(=O)Nc1ccccc12)N(C)C(=O)c1cncc2ccccc12 [Example 295] | < 0.1 |
| CN(C(=O)[C@H](O)C(C)(C)C)[C@@H](CC1CC1)C(=O)N1C[C@]2(C[C@H]1C#N)C(=O)Nc1ccccc12 [Example 417] | < 0.1 |
| CC(C)C[C@@H](C(=O)N1C[C@]2(C[C@H]1C#N)C(=O)Nc1ccccc12)N(C)C(=O)CCc1ccccc1 [Example 227] | < 0.1 |
| Cc1cccc2[nH]c(C(=O)N(C)[C@@H](CC(C)C)C(=O)N3C[C@]4(C[C@H]3C#N)C(=O)Nc3ccccc34)nc12 [Example 252] | < 0.1 |
| CC(C)C[C@@H](C(=O)N1C[C@]2(C[C@H]1C#N)C(=O)Nc1ccccc12)N(C)C(=O)c1n[nH]c(-c2ccccc2)n1 [Example 288] | 0.1 to 1 |
| CC(C)C[C@@H](C(=O)N1C[C@]2(C[C@H]1C#N)C(=O)Nc1ccccc12)N(C)C(=O)c1cc(OC2CC2)n2nc(C3CC3)cc2c1 [Example 315] | < 0.1 |
| [2H]C([2H])([2H])N(C(=O)c1cc2c(F)cc(F)cc2[nH]1)[C@@H](CC(C)(C)F)C(=O)N1C[C@]2(C[C@H]1C#N)C(=O)Nc1ccc(Cl)cc12 [Example 454] | < 0.1 |
| CC(C)(C)C[C@H](NC(=O)c1cnn(C(C)(C)C)c1)C(=O)N1C[C@]2(C[C@H]1C#N)C(=O)Nc1ccccc12 [Example 133] | < 0.1 |
| CCCC[C@H](NC(=O)[C@@H](O)c1ccc(F)cc1)C(=O)N1C[C@]2(C[C@H]1C#N)C(=O)Nc1ccccc12 [Example 418] | < 0.1 |
| CC(C)C[C@@H](C(=O)N1C[C@]2(C[C@H]1C#N)C(=O)Nc1ccccc12)N(C)C(=O)c1cc2cc(C#N)ccc2[nH]1 [Example 327] | < 0.1 |
| CC(C)C[C@@H](C(=O)N1C[C@]2(C[C@H]1C#N)C(=O)Nc1ccccc12)N(C)C(=O)c1cc(OC(F)(F)F)c2ncccc2c1 [Example 322] | < 0.1 |
| CC(C)C[C@@H](C(=O)N1C[C@]2(C[C@H]1C#N)C(=O)Nc1ccccc12)N(C)C(=O)c1ccnn1C [Example 203] | < 0.1 |
| CC(C)C[C@@H](C(=O)N1C[C@]2(C[C@H]1C#N)C(=O)Nc1ccccc12)N(C)C(=O)c1ccc2nccc(Br)c2c1 [Example 274] | < 0.1 |
| CC(C)C[C@@H](C(=O)N1C[C@]2(C[C@H]1C#N)C(=O)Nc1ccccc12)N(C)C(=O)c1cc2ccc(C(C)C)nc2[nH]1 [Example 491] | < 0.1 |
